Read-outs that look alike come from different tables or passages of the source.
Target: recombinant 15-PGDH (Homo sapiens (Human), UniProt P15428)
Assay: Enzyme inhibition of recombinant 15-PGDH, in vitro assay
Type: biochemical
[1] = recombinant human 15-PGDH, read-out: Enzyme inhibition (IC50)

Sequence of recombinant 15-PGDH (P15428 whole entry): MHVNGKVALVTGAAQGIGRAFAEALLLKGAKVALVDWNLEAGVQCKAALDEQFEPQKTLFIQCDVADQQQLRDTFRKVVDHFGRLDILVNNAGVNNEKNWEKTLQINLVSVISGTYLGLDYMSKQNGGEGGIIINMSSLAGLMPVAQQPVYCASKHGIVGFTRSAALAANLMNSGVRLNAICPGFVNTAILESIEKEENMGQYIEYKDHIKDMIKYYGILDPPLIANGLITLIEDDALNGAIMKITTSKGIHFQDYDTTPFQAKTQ

| SMILES | IC50 [1] [nM] | IC50 [nM] |
| --- | --- | --- |
| CCCCSc1cc2nc(-c3ccc(OC)cc3)cc(C(F)(F)F)n2n1 [2a, 2-(butylthio)-5-(4-methoxyphenyl)-7-(trifluoromethyl)pyrazolo[1,5-a]pyrimidine] | > 2500 |  |
| CCCCSc1ccc2nc(-c3ccccc3)c(-c3ccccc3)nc2c1 [2b] | > 2500 |  |
| CCCCS(=O)(=O)c1ccc2nc(-c3ccccc3)c(-c3ccccc3)nc2c1 [4b] | > 2500 |  |
| CCN(CC)C(=O)c1cc2nc(-c3ccc(OC)cc3)cc(C(F)(F)F)n2n1 [8a] | 100 |  |
| COc1ccc(-c2cc(C(F)(F)F)n3nc(C(=O)N4CCCC4)cc3n2)cc1 [9a] | > 2500 |  |
| COc1ccc(-c2cc(C(F)(F)F)n3nc(C(=O)N4CCOCC4)cc3n2)cc1 [10a] | 100 to 500 |  |
| COc1ccc(-c2cc(C(F)(F)F)n3nc(C(=O)N4CCCCCC4)cc3n2)cc1 [11a] | 18.9 |  |
| COc1ccc(-c2cc(C(F)(F)F)n3nc(C(=O)N4CCC(=O)CC4)cc3n2)cc1 [13a] |  | 500 to 2500 |
| COc1ccc(-c2cc(C(F)(F)F)n3nc(C(=O)N4CCC(NC(=O)OC(C)(C)C)CC4)cc3n2)cc1 [14a] | 100 to 500 |  |
| COc1ccc(-c2cc(C(F)(F)F)n3nc(C(=O)N4CCC(F)CC4)cc3n2)cc1 [15a] | 42 |  |
| O=C(NCc1ccccc1)c1ccc2nc(-c3ccccc3)c(-c3ccccc3)nc2c1 [15b] | > 2500 |  |
| COc1ccc(-c2cc(C(F)(F)F)n3nc(C(=O)N4CCC(CO)CC4)cc3n2)cc1 [16a] | < 100 |  |
| COC(=O)CNC(=O)c1ccc2nc(-c3ccccc3)c(-c3ccccc3)nc2c1 [16b] | > 2500 |  |
| COc1ccc(-c2cc(C(F)(F)F)n3nc(C(=O)N4CCCCC4CO)cc3n2)cc1 (stereo not drawn) [17a] | < 100 |  |
| O=C(NCCO)c1ccc2nc(-c3ccccc3)c(-c3ccccc3)nc2c1 [17b] | > 2500 |  |
| COc1ccc(-c2cc(C(F)(F)F)n3nc(C(=O)N4CCC(C)CC4)cc3n2)cc1 [18a] | 30.6 |  |
| COc1ccc(-c2cc(C(F)(F)F)n3nc(C(=O)N4CCCC(C)C4)cc3n2)cc1 (stereo not drawn) [19a] | 14.6 |  |
| C=CCNC(=O)c1ccc2nc(-c3ccccc3)c(-c3ccccc3)nc2c1 [19b] | > 2500 |  |

| SMILES | IC50 [1] [nM] | IC50 [nM] |
| --- | --- | --- |
| COc1ccc(-c2cc(C(F)(F)F)n3nc(C(=O)N4CCCCC4C)cc3n2)cc1 (stereo not drawn) [20a] | 33 |  |
| COc1ccc(-c2cc(C(F)(F)F)n3nc(C(=O)N4CCC(OC)CC4)cc3n2)cc1 [21a] | 100 to 500 |  |
| O=C(O)c1ccc2nc(-c3ccccc3)c(-c3ccccc3)nc2c1 [21b] | > 2500 |  |
| COc1ccc(-c2cc(-c3ccncc3)n3nc(C(=O)N4CCCCC4)cc3n2)cc1 [22a] | ~100 |  |
| COc1ccc(-c2cc(-c3cccnc3)n3nc(C(=O)N4CCCCC4)cc3n2)cc1 [23a] | ~100 |  |
| COc1ccc(-c2cc(-c3ccccn3)n3nc(C(=O)N4CCCCC4)cc3n2)cc1 [24a] | 20 to 100 |  |
| COc1ccc(-c2cc(-c3ccnc(Cl)c3)n3nc(C(=O)N4CCCCC4)cc3n2)cc1 [25a] | > 100 |  |
| COc1ccc(-c2cc(-c3ccncc3Cl)n3nc(C(=O)N4CCCCC4)cc3n2)cc1 [26a] | ~500 |  |
| O=C(c1ccc2nc(-c3ccccc3)c(-c3ccccc3)nc2c1)N1CCCCC1CO (stereo not drawn) [26b] | 100 to 500 |  |
| COc1ccc(-c2cc(-c3ccc(F)nc3)n3nc(C(=O)N4CCCCC4)cc3n2)cc1 [27a] | > 500 |  |
| COc1ccc(-c2cc(-c3cncnc3)n3nc(C(=O)N4CCCCC4)cc3n2)cc1 [28a] | 100 to 500 |  |
| COc1ccc(-c2cc(-c3cnn(C)c3)n3nc(C(=O)N4CCCCC4)cc3n2)cc1 [29a] | 20 to 100 |  |
| CC1CCCCN1C(=O)c1ccc2nc(-c3ccccc3)c(-c3ccccc3)nc2c1 (stereo not drawn) [29b] | 100 to 500 |  |
| COc1ccc(-c2cc(-c3ccnc(F)c3)n3nc(C(=O)N4CCCCC4)cc3n2)cc1 [30a] | 20 to 100 |  |
| CNc1cc(-c2ccc(OC)cc2)nc2cc(C(=O)N3CCCCC3)nn12 [31a] | 20 to 100 |  |
| COc1ccc(-c2cc(N(C)C)n3nc(C(=O)N4CCCCC4)cc3n2)cc1 [32a] | 33.4 |  |
| O=C(c1ccc2nc(-c3ccccc3)[nH]c2c1)N1CCCCC1 [32b] | 100 to 500 |  |
| COc1ccc(-c2cc(OC)n3nc(C(=O)N4CCCCC4)cc3n2)cc1 [33a] | 20 to 100 |  |

— patent US11718589B2, “Compositions and methods of modulating short-chain dehydrogenase” (CASE WESTERN RESERVE UNIVERSITY, priority 2017, dated 2023)
